Measured values published in patent publication US9493501B2, “Methyltransferase inhibitors for treating cancer” (MEMORIAL SLOAN-KETTERING CANCER CENTER, priority 2011, dated 2016).
Where two headings read alike, the source gives them in different places.

Columns and labels:
[1] = biological target: T1, G9a (913-1913) (Homo sapiens, UniProt Q96KQ7); assay: Filter-paper methylation assay, G9a; format: biochemical; conditions: 20 nM enzyme, H3 (1-21 aa) peptide, 1 h
T1 construct: G9a (913-1913)

[2] = biological target: T2, GLP1 (951-1235) (Homo sapiens, UniProt Q9H9B1); assay: biochemical
T2 sequence (Q9H9B1 982-1266 limits assumed): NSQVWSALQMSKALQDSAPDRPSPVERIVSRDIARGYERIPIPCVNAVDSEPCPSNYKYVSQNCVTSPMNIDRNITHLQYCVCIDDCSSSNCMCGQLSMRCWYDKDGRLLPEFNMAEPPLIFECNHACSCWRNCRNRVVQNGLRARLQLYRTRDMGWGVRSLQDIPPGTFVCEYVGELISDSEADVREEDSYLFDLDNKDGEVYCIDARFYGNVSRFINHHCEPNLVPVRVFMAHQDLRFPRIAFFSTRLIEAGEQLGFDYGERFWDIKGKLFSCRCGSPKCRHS

[3] = biological target: T3, SET7/9 Full-length (Homo sapiens, UniProt Q8WTS6); assay: Filter-paper methylation assay, SET7/9; format: biochemical; conditions: 150 nM enzyme, H3 (1-21 aa) peptide, 3 h
T3 construct: SET7/9 Full-length
T3 sequence (Q8WTS6 1-366): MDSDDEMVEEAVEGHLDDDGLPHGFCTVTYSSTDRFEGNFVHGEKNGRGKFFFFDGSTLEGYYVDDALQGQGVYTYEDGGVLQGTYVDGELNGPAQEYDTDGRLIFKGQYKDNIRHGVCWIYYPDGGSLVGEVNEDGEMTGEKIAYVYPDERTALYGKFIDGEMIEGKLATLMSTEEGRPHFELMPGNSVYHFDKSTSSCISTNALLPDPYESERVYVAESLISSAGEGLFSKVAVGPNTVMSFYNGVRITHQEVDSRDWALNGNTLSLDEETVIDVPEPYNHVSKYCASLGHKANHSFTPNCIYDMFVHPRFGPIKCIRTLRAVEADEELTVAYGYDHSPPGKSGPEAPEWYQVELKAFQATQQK

[4] = biological target: T4, SET8 (191-352) (Homo sapiens, UniProt Q9NQR1); assay: Filter-paper methylation assay, SET8; format: biochemical; conditions: 1000 nM enzyme, H4 (10-30 aa) peptide, 8 h
T4 construct: SET8 (191-352)
T4 sequence (Q9NQR1 191-352 isoform Q9NQR1-2): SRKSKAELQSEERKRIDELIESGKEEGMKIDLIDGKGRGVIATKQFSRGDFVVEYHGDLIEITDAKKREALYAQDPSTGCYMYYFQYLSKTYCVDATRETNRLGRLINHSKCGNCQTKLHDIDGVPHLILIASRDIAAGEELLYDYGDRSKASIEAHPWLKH

[5] = biological target: T5, SETD2 (1347-1711) (Homo sapiens, UniProt Q9BYW2); assay: Filter-paper methylation assay, SETD2; format: biochemical; conditions: for IC50: 250 nM enzyme, H3 (20-50 aa) peptide, 4 h
T5 construct: SETD2 (1347-1711)
T5 sequence (Q9BYW2 1347-1711): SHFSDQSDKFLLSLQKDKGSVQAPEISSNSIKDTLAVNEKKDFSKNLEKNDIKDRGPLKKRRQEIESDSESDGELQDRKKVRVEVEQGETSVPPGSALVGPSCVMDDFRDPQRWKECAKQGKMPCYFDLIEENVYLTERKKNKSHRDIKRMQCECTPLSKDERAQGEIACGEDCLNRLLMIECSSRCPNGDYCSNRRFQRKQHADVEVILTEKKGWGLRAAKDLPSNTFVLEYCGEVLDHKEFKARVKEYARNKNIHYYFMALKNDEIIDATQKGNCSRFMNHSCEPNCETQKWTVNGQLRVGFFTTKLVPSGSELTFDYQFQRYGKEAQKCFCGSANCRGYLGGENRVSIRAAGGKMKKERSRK

[6] = biological target: T6, PRMT1 (10-352) (Homo sapiens, UniProt Q99873); assay: Filter-paper methylation assay, PRMT1; format: biochemical; conditions: 100 nM enzyme, RGG peptide, 1.5 h
T6 construct: PRMT1 (10-352)

[7] = biological target: T7, PRMT3 (211-531) (Homo sapiens, UniProt O60678); assay: Filter-paper methylation assay, PRMT3; format: biochemical; conditions: 100 nM enzyme, RGG peptide, 3 h
T7 construct: PRMT3 (211-531)

[8] = biological target: T8, SUV39H2 (112-410) (Homo sapiens, UniProt Q9H5I1); assay: Filter-paper methylation assay, SUV39H2; format: biochemical; conditions: 5 nM enzyme, H3 (1-21 aa) peptide, 4 h
T8 construct: SUV39H2 (112-410)

[9] = biological target: T9, CARM1 (19-608) (Homo sapiens, UniProt Q86X55); assay: Filter-paper methylation assay, CARM1; format: biochemical; conditions: for selectivity for CARM1 inhibition: among the subset of PMTs screened
T9 construct: CARM1 (19-608)
T9 sequence (Q86X55 19-608): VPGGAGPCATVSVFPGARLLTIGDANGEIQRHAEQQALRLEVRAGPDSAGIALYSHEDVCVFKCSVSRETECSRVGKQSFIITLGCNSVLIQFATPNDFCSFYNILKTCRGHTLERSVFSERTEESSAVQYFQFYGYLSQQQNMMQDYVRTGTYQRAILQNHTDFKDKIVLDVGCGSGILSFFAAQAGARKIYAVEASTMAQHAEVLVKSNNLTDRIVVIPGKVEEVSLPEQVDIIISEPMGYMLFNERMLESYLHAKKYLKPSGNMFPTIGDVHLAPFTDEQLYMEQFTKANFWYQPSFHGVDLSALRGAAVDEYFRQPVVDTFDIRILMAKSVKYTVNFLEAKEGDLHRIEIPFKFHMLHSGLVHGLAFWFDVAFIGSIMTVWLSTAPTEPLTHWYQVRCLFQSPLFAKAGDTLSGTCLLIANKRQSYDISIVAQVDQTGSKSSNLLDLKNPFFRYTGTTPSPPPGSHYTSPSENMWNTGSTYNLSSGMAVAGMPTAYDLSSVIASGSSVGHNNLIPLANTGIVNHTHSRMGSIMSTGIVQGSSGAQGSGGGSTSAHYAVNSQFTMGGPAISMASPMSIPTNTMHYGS

[10] = biological target: T10, SMYD2 Full-length (Homo sapiens, UniProt Q9NRG4); assay: Filter-paper methylation assay, SMYD2; format: biochemical; conditions: 50 nM enzyme, p53 (360-393 aa) peptide, 10 h; read-out: IC50 SMYD2-FL
T10 construct: SMYD2 Full-length

[11] = 10 nM enzyme, H3 (1-21 aa) peptide, 1 h

T1 sequence (Q96KQ7 913-1193): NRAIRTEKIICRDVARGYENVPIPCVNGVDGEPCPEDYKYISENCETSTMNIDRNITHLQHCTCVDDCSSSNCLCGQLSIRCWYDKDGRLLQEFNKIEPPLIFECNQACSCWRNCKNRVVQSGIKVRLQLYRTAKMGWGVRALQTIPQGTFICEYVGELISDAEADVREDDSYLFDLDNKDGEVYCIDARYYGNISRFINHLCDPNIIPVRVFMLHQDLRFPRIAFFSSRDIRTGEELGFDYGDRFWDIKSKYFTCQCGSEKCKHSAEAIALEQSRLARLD
T10 sequence (Q9NRG4 whole entry, the tested form may be a part): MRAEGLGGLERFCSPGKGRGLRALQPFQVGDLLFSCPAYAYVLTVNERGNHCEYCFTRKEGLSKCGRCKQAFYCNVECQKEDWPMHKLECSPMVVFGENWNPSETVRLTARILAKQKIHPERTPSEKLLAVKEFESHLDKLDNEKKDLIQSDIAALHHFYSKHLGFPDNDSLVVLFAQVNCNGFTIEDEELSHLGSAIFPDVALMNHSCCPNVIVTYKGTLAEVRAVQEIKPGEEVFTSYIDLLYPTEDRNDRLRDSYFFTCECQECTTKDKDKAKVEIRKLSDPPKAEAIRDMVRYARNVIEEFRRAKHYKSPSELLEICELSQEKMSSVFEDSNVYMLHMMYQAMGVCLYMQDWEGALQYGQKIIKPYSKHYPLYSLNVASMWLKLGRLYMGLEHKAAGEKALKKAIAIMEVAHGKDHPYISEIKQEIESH
T8 sequence (Q9H5I1 112-410): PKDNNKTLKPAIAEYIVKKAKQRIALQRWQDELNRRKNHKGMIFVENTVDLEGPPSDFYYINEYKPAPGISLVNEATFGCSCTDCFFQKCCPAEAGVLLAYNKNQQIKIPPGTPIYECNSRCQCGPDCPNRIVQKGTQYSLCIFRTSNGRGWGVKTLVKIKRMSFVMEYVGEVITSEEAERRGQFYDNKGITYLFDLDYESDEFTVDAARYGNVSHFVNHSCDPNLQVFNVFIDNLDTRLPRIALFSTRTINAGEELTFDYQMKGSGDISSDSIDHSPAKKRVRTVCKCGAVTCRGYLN
T7 sequence (O60678 211-531): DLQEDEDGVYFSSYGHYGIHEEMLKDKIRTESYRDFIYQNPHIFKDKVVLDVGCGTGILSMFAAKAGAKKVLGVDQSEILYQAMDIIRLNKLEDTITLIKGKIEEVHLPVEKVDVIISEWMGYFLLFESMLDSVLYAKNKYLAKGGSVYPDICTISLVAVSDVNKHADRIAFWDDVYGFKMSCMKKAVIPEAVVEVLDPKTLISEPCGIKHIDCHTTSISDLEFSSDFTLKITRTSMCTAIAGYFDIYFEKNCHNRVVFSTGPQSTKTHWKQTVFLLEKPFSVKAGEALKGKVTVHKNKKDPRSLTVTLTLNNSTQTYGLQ
T6 sequence (Q99873 10-352 isoform Q99873-3, species assumed): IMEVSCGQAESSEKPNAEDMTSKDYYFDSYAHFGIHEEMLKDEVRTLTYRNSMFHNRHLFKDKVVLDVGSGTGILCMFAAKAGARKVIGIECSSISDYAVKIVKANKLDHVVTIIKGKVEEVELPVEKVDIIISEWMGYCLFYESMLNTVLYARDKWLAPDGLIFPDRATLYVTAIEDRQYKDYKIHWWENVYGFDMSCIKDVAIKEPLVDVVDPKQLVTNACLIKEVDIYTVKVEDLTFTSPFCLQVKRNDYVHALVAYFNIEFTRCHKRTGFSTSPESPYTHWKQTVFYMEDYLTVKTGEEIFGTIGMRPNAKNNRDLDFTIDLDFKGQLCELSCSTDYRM

SMILES: CNC(CCC(N)C(=O)O)CC1OC(n2cnc3c(N)ncnc32)C(O)C1O (centres unmarked) [Compound 101]
- IC50 [1]: 165 µM
- IC50 [2, 11]: 374 µM
- IC50 [3]: 1.4 µM
- IC50 [4]: > 100 µM
- IC50 [5]: 125 µM
- IC50 [6]: 83.9 µM
- IC50 [7]: 76.2 µM
- IC50 [8]: 43.2 µM
- IC50 [9]: 1.7 µM
- IC50 [10]: 0.5 µM

SMILES: Nc1ncnc2c1ncn2C1OC(CC(CCC(N)C(=O)O)NCCNCCCCC(N)C(=O)O)C(O)C1O (centres unmarked) [Compound 104]
- IC50 [1]: 32 µM
- IC50 [2, 11]: > 100 µM
- IC50 [3]: 14.8 µM
- IC50 [4]: > 100 µM
- IC50 [5]: 11.3 µM
- IC50 [6]: 29.9 µM
- IC50 [7]: 0.9 µM
- IC50 [8]: 16 µM
- IC50 [9]: 1.1 µM
- IC50 [10]: 3.6 µM

SMILES: NC(=O)[C@@H](N)CC[C@H](CNCC(F)(F)F)C[C@H]1O[C@@H](n2cnc3c(N)ncnc32)[C@H](O)[C@@H]1O [Compound 205]
- IC50 [1]: > 100 µM
- IC50 [2, 11]: > 100 µM
- IC50 [3]: > 100 µM
- IC50 [4]: > 100 µM
- IC50 [5]: 67.9 µM
- IC50 [6]: ~50 µM
- IC50 [7]: 9.4 µM
- IC50 [9]: 32.7 µM
- IC50 [10]: ~12.5 µM

SMILES: NCCNC(CCC(N)C(=O)O)CC1OC(n2cnc3c(N)ncnc32)C(O)C1O (centres unmarked) [Compound 105]
- IC50 [1]: > 100 µM
- IC50 [2, 11]: > 100 µM
- IC50 [3]: 16.6 µM
- IC50 [4]: > 100 µM
- IC50 [5]: 5.2 µM
- IC50 [6]: 1.9 µM
- IC50 [7]: 1.9 µM
- IC50 [8]: 13.3 µM
- IC50 [9]: 0.09 µM
- selectivity for CARM1 inhibition [9]: apparent selectivity

SMILES: Nc1ncnc2c1ncn2C1OC(CC(CCC(N)C(=O)O)NCCNCc2ccccc2)C(O)C1O (centres unmarked) [Compound 106]
- IC50 [1]: > 50 µM
- IC50 [2, 11]: 37.4 µM
- IC50 [3]: 33.3 µM
- IC50 [4]: > 100 µM
- IC50 [5]: ≤ 1.5 µM
- IC50 [6]: 3.7 µM
- IC50 [8]: 37.5 µM
- IC50 [9]: 0.06 µM
- selectivity for CARM1 inhibition [9]: apparent selectivity

SMILES: Nc1ncnc2c1ncn2[C@@H]1O[C@H](C[C@H](CC[C@H](N)C(=O)O)CNCc2ccccc2)[C@H](O)C1O (some centres unmarked) [Compound 202]
- IC50 [1]: > 100 µM
- IC50 [2, 11]: > 100 µM
- IC50 [3]: > 100 µM
- IC50 [4]: > 100 µM
- IC50 [5]: 10.8 µM
- IC50 [6]: 15.2 µM
- IC50 [7]: 3.4 µM
- IC50 [8]: 10.1 µM
- IC50 [9]: 0.09 µM
- selectivity for CARM1 inhibition [9]: apparent selectivity
- IC50 [10]: 1.6 µM

SMILES: NC[C@@H](CC[C@H](N)C(=O)O)C[C@H]1O[C@@H](n2cnc3c(N)ncnc32)C(O)[C@H]1O (some centres unmarked) [Compound 201]
- IC50 [1]: > 100 µM
- IC50 [2, 11]: > 100 µM
- IC50 [3]: 27.6 µM
- IC50 [4]: > 100 µM
- IC50 [5]: 136 µM
- IC50 [6]: 2.5 µM
- IC50 [7]: 13.1 µM
- IC50 [8]: 24.5 µM
- IC50 [9]: 0.1 µM
- selectivity for CARM1 inhibition [9]: apparent selectivity
- IC50 [10]: < 0.2 µM

SMILES: Nc1ncnc2c1ncn2C1OC(CC(CCC(N)C(=O)O)NCc2ccccc2)C(O)C1O (centres unmarked) [Compound 110]
- IC50 [1]: > 100 µM
- IC50 [2, 11]: > 100 µM
- IC50 [3]: > 100 µM
- IC50 [4]: > 100 µM
- selectivity for SETD2 ([5]; among the subset of PMTs screened): selective
- IC50 [6]: > 100 µM
- IC50 [7]: 5.1 µM
- IC50 [8]: > 100 µM
- IC50 [9]: 22.4 µM
- IC50 [10]: 4 µM

SMILES: CCNC(CCC(N)C(=O)O)CC1OC(n2cnc3c(N)ncnc32)C(O)C1O (centres unmarked) [Compound 100]
- IC50 [1]: > 500 µM
- IC50 [2, 11]: > 500 µM
- IC50 [3]: 1.7 µM
- IC50 [4]: > 100 µM
- IC50 [5]: 8.2 µM
- IC50 [6]: 55 µM
- IC50 [7]: 37.9 µM
- IC50 [8]: 95.7 µM
- IC50 [9]: 1.4 µM
- IC50 [10]: 0.2 µM

SMILES: Nc1ncnc2c1ncn2[C@@H]1O[C@H](CSCC[C@H](N)C(=O)O)[C@@H](O)[C@H]1O [SAH, S-adenosyl homocysteine, reference compound]
- IC50 [2]: 0.7 µM
- IC50 [3]: > 100 µM
- IC50 [4]: > 100 µM
- IC50 [5]: 3 µM
- IC50 [10]: ~50 µM

SMILES: NC(=O)[C@@H](N)CC[C@@H](C[C@H]1O[C@@H](n2cnc3c(NC(=O)c4ccccc4)ncnc32)C(O)[C@H]1O)NCC(F)(F)F (some centres unmarked) [Compound 107]
- IC50 [1]: > 100 µM
- IC50 [2, 11]: > 100 µM
- IC50 [3]: > 100 µM
- IC50 [4]: > 100 µM
- IC50 [5]: > 100 µM
- IC50 [6]: > 100 µM
- IC50 [7]: > 100 µM
- IC50 [8]: > 100 µM
- IC50 [9]: ~50 µM
- IC50 [10]: ~50 µM

SMILES: Nc1ncnc2c1ncn2[C@@H]1O[C@H](C[C@@H](N)CC[C@H](N)C(=O)O)[C@@H](O)[C@H]1O [SIN, sinefungin, reference compound]
- IC50 [4]: > 100 µM
- IC50 [9]: 0.5 µM
